Reference: patent US11926628B2 (Gilead Sciences, Inc., priority 2021, dated 2024)

Tests used:
[1] = test system: Jurkat NFκB-luciferase cells; test: Jurkat NFκB-Luciferase Assay; type: cell-based; conditions: Homo sapiens; Jurkat NFκB-luciferase cells activated with anti-CD3 antibody (OKT3), 2.5 hrs at 37° C.; geometric mean; read-out: DGK NFKb Luciferase EC50
Description: The activity of compounds was tested in a cell based NFκB reporter assay. Jurkat cells that are stably expressing a luciferase reporter construct under the transcriptional control of a NFκB reporter element were activated with an anti-CD3 antibody and luciferase levels were measured with a bioluminescence readout. An increase in the levels of bioluminescence was indicative of enhanced T-cell activation following DGKα inhibition by the compound.
Flat-bottom polystyrene plates (384-well, tissue culture treated) were coated overnight at 4° C. with 20 ul/well of a solution of phosphate-buffered saline supplemented with 5 ug/ml anti-CD3 antibody (clone OKT3, Biolegend). The day after, the excess antibody was washed out five times with 100 ul/well of assay medium (RPMI supplemented with 10% fetal bovine serum) using a Biotek EL406 instrument and leaving 20 ul of residual volume in each well. Jurkat NFκB-luciferase cells (Promega #) were harvested and diluted to 1 million cells/ml in assay medium. Sixty nanoliters of test compound dissolved in DMSO at various concentrations were dispensed into 384-well v-bottom polypropylene plates (Greiner) using a Labcyte Echo instrument. Thirty microliters of medium containing the Jurkat NFκB-luciferase cells were then dispensed using a Biotek MicroFlo instrument in each well of the compound-containing plate. The medium/cell/compound mixture was mixed with a Bravo instrument and 20 ul/well of the mixture was transferred to the anti-CD3-coated plate. The assay mixture was then incubated for 2.5 hrs at 37° C. followed by equilibration at 25° C. for 30 min. Forty microliters of One-Glo Ex (Promega) was then added to the assay mixture and luciferase activity was read on a Envision plate reader 7 minutes later.
Bioluminescence data were normalized based on maximum enhancement (1 micromolar of compound) and on basal activation (DMSO) controls. Least squares curve fittings were performed using a four-parameter variable slope nonlinear regression model. EC50 is defined as the concentration of compound required to produce 50% of maximum NFκB luciferase signal. EC50 values from multiple experiments were averaged by geometric mean and the standard deviation was calculated.

human DGKα = human DGKα (Homo sapiens (Human), UniProt P23743); test: DGKα Biochemical Activity Assay (ADP-Glo); conditions: recombinant DGKα 1 nM, 100 μM ATP, 18:1 DAG/POPS/octylglucoside micelles, 1 hour at 25° C.; geometric mean; read-out: HTBS DGKa 1X ATP KM IC50
Source text: Alternatively, the enzymatic activity of human DGKα was monitored in a biochemical assay in the presence or absence of compounds and using micelles containing 18:1 Diacylglycerol (DAG), 16:0-18:1 PS (POPS) and Octylglucoside as substrate. DGKα activity led to conversion of DAG and ATP to Phosphatidic Acid (PA) and ADP. Levels of ADP were monitored by bioluminescence using the ADP-Glo Kinase Assay (Promega) and were indicative of DGKα activity.
Ten nanoliters of test compound dissolved in DMSO at various concentrations were dispensed into a 384-well low volume nonbinding service white plates (Corning #3824) using a Labcyte Echo instrument. Recombinant DGKα (Carna Biosciences) in assay buffer (5 μL in 50 mM MOPS [3-(N-morpholino) propanesulfonic acid], pH 7.2; 0.0025% Triton X-100; 1 mM dithiothreitol; 5 mM MgCl2, 200 μM ATP) was added to the compound-containing plate and was incubated for 15 minutes at 25° C. A substrate solution (5 μL in 1.7 mM 1,2-dioleoyl-sn-glycerol [18:1 DAG], 13.5 mM 1-palmitoyl-2-oleoyl-sn-glycero-3-phospho-L-serine [16:0-18:1 PS](POPS), 2 μM CaCl2, 100 mM Octylglucoside (OG), 1 mM DTT) (obtained from Carna Biosciences) diluted in DGK ALPHA assay buffer was then added to start the reaction. Final concentrations were 1 nM DGKα, 100 μM ATP, 1 μM calcium chloride, 0.85 mM 1,2-dioleoyl-sn-glycerol (18:1 DAG), 6.75 mM 1-palmitoyl-2-oleoyl-sn-glycero-3-phospho-L-serine (16:0-18:1 PS) (POPS), 1 μM CaCl2), 50 mM Octylglucoside (OG) and 5 mM MgCl2. The reaction mixture was incubated at 25° C. for 1 hour. ADP-Glo Reagent (10 μL, 10 mM Mg added) provided by the kit was added to each well and incubated at 25° C. for 40 minutes. Then, 20 μL of Kinase Detection Reagent was added and incubated at 25° C. for 40 minutes. Luciferase activity of each well was measured via luminescence on an Envision plate reader (PerkinElmer).
Data were normalized based on maximum inhibition (50 μM of kinase inhibitor CU3) and no inhibition (DMSO) controls. Least squares curve fittings were performed using a four-parameter variable slope nonlinear regression model. IC50 was defined as the concentration of compound required to inhibit 50% of maximum activity. IC50 values from multiple experiments were averaged by geometric mean and the standard deviation was calculated.

Sequence of human DGKα (P23743 whole entry): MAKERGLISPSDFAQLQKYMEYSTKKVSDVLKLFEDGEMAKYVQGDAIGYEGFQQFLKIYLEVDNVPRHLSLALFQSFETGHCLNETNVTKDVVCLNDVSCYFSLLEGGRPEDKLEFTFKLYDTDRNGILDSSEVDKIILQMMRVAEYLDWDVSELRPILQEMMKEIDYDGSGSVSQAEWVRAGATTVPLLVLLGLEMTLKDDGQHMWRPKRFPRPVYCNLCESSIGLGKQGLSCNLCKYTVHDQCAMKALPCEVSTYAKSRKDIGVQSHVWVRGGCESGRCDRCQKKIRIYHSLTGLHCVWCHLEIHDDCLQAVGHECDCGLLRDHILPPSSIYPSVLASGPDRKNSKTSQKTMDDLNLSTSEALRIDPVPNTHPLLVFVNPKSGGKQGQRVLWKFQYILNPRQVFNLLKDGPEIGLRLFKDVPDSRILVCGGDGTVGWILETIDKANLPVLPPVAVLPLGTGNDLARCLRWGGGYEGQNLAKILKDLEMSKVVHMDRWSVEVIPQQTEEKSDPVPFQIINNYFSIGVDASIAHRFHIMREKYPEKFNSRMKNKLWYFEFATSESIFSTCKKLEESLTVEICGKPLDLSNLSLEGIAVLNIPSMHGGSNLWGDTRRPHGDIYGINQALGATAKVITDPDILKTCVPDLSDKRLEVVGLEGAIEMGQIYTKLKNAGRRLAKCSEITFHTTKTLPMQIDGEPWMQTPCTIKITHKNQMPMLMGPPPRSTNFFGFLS

| SMILES | EC50 [1] | IC50 (human DGKα) |
| --- | --- | --- |
| Fc1cc(C#CC2(C(F)(F)F)CC2)cc(N(CC(F)F)c2nc3nncn3c3cccnc23)c1 [Example 20, N-(2,2-difluoroethyl)-N-(3-fluoro-5-((1-(trifluoromethyl)cyclopropyl)ethynyl)phenyl)pyrido[2,3-e][1,2,4]triazolo[4,3-a]pyrimidin-5-amine] | 0.0029 µM | 0.0718 µM |
| Cc1nnc2nc(N3CCCc4c(C#CC(C)(C)C(F)(F)F)cccc43)c3ncccc3n12 [Example 21, 3-methyl-8-[5-(4,4,4-trifluoro-3,3-dimethyl-but-1-ynyl)-3,4-dihydro-2H-quinolin-1-yl]-2,4,5,7,10-pentazatricyclo[7.4.0.02,6]trideca-1(13),3,5,7,9,11-hexaene] | 0.0125 µM | 0.0739 µM |
| Cc1nnc2nc(N3CCCc4c(C#CC5(C(F)(F)F)CC5)cccc43)c3ncccc3n12 [Example 23, 3-methyl-8-[5-[2-[1-(trifluoromethyl)cyclopropyl]ethynyl]-3,4-dihydro-2H-quinolin-1-yl]-2,4,5,7,10-pentazatricyclo[7.4.0.02,6]trideca-1(13),3,5,7,9,11-hexaene] | 0.0135 µM | 0.0419 µM |
| FCC1(C#Cc2cccc3c2CCCN3c2nc3nncn3c3cccnc23)CC1 [Example 27, 5-(5-((1-(fluoromethyl)cyclopropyl)ethynyl)-3,4-dihydroquinolin-1(2H)-yl)pyrido[2,3-e][1,2,4]triazolo[4,3-a]pyrimidine] | 0.00611 µM | 0.00683 µM |
| Cc1nnc2nc(N3CCCc4c(C#CC(C)(C)O)cccc43)c3c(F)cncc3n12 [Example 28, 4-(1-(6-fluoro-1-methylpyrido[4,3-e][1,2,4]triazolo[4,3-a]pyrimidin-5-yl)-1,2,3,4-tetrahydroquinolin-5-yl)-2-methylbut-3-yn-2-ol] | 0.0336 µM | 0.0119 µM |
| Cc1nnc2nc(N3CCCc4c3ccnc4C#CC3(C(C)(F)F)CC3)c3c(F)cncc3n12 [Example 29, 5-(5-((1-(1,1-difluoroethyl)cyclopropyl)ethynyl)-3,4-dihydro-1,6-naphthyridin-1(2H)-yl)-6-fluoro-1-methylpyrido[4,3-e][1,2,4]triazolo[4,3-a]pyrimidine] | 0.00724 µM | 0.0377 µM |
| Cc1nnc2nc(N3CCCc4c3ccnc4C#CC(C)(C)C(F)(F)F)c3c(F)cncc3n12 [Example 30, 6-fluoro-1-methyl-5-(5-(4,4,4-trifluoro-3,3-dimethylbut-1-yn-1-yl)-3,4-dihydro-1,6-naphthyridin-1(2H)-yl)pyrido[4,3-e][1,2,4]triazolo[4,3-a]pyrimidine] | 0.0132 µM | 0.0248 µM |
| Cc1nnc2nc(N3CCCc4c3ccnc4C#CC(C)(C)C#N)c3c(F)cncc3n12 [Example 31, 4-(1-(6-fluoro-1-methylpyrido[4,3-e][1,2,4]triazolo[4,3-a]pyrimidin-5-yl)-1,2,3,4-tetrahydro-1,6-naphthyridin-5-yl)-2,2-dimethylbut-3-ynenitrile] | 0.0811 µM | 0.0723 µM |
| Cc1nnc2nc(N3CCCc4c3ccnc4C#CC3(C(F)(F)F)CC3)c3c(F)cncc3n12 [Example 33, 6-fluoro-1-methyl-5-(5-((1-(trifluoromethyl)cyclopropyl)ethynyl)-3,4-dihydro-1,6-naphthyridin-1(2H)-yl)pyrido[4,3-e][1,2,4]triazolo[4,3-a]pyrimidine] | 0.00513 µM | 0.0224 µM |
| Cc1nnc2nc(N3CCCc4c(C#CC5(C(C)(F)F)CC5)cncc43)c3c(F)cncc3n12 [Example 34, 5-(5-((1-(1,1-difluoroethyl)cyclopropyl)ethynyl)-3,4-dihydro-1,7-naphthyridin-1(2H)-yl)-6-fluoro-1-methylpyrido[4,3-e][1,2,4]triazolo[4,3-a]pyrimidine] | 0.00334 µM | 0.0428 µM |
| Cc1nnc2nc(N3CCCc4c(C#CC5(C(F)F)CC5)cncc43)c3c(F)cncc3n12 [Example 35, 5-(5-((1-(difluoromethyl)cyclopropyl)ethynyl)-3,4-dihydro-1,7-naphthyridin-1(2H)-yl)-6-fluoro-1-methylpyrido[4,3-e][1,2,4]triazolo[4,3-a]pyrimidine] | 0.00597 µM | 0.0201 µM |
| Cc1nnc2nc(N3CCCc4c(C#CC5(C)CC5)cncc43)c3c(F)cncc3n12 [Example 38, 6-fluoro-1-methyl-5-(5-((1-methylcyclopropyl)ethynyl)-3,4-dihydro-1,7-naphthyridin-1(2H)-yl)pyrido[4,3-e][1,2,4]triazolo[4,3-a]pyrimidine] | 0.00607 µM | 0.0179 µM |

The remaining lines, values ahead:

| EC50 [1] | IC50 (human DGKα) | SMILES |
| --- | --- | --- |
| 0.00326 µM | 0.0232 µM | Cc1nnc2nc(N3CCCc4c(C#CC5(C)CC5)cccc43)c3ncccc3n12 [Example 22, 3-methyl-8-[5-[2-(1-methylcyclopropyl)ethynyl]-3,4-dihydro-2H-quinolin-1-yl]-2,4,5,7,10-pentazatricyclo[7.4.0.02,6]trideca-1(13),3,5,7,9,11-hexaene] |
| 0.00277 µM | 0.017 µM | CC1(C#Cc2cccc3c2CCCN3c2nc3nncn3c3cccnc23)CC1 [Example 24, 8-[5-[2-(1-methylcyclopropyl)ethynyl]-3,4-dihydro-2H-quinolin-1-yl]-2,4,5,7,10-pentazatricyclo[7.4.0.02,6]trideca-1(13),3,5,7,9,11-hexaene] |
| 0.00308 µM | 0.0226 µM | FC(F)(F)C1(C#Cc2cccc3c2CCCN3c2nc3nncn3c3cccnc23)CC1 [Example 25, 8-[5-[2-[1-(trifluoromethyl)cyclopropyl]ethynyl]-3,4-dihydro-2H-quinolin-1-yl]-2,4,5,7,10-pentazatricyclo[7.4.0.02,6]trideca-1(13),3,5,7,9,11-hexaene] |
| 0.00837 µM | 0.0212 µM | Cc1nnc2nc(N3CCCc4c(C#CC5(CF)CC5)cccc43)c3ncccc3n12 [Example 26, 5-(5-((1-(fluoromethyl)cyclopropyl)ethynyl)-3,4-dihydroquinolin-1(2H)-yl)-1-methylpyrido[2,3-e][1,2,4]triazolo[4,3-a]pyrimidine] |
| 0.00879 µM | 0.0126 µM | Cc1nnc2nc(N3CCCc4c3ccnc4C#CC3(C)CC3)c3c(F)cncc3n12 [Example 32, 6-fluoro-1-methyl-5-(5-((1-methylcyclopropyl)ethynyl)-3,4-dihydro-1,6-naphthyridin-1(2H)-yl)pyrido[4,3-e][1,2,4]triazolo[4,3-a]pyrimidine] |
| 0.00886 µM | 0.0404 µM | Cc1nnc2nc(N3CCCc4c(C#CC(C)(C)C(F)(F)F)cncc43)c3c(F)cncc3n12 [Example 36, 6-fluoro-1-methyl-5-(5-(4,4,4-trifluoro-3,3-dimethylbut-1-yn-1-yl)-3,4-dihydro-1,7-naphthyridin-1(2H)-yl)pyrido[4,3-e][1,2,4]triazolo[4,3-a]pyrimidine] |
| 0.0549 µM | 0.0529 µM | Cc1nnc2nc(N3CCCc4c(C#CC(C)(C)C#N)cncc43)c3c(F)cncc3n12 [Example 37, 4-(1-(6-fluoro-1-methylpyrido[4,3-e][1,2,4]triazolo[4,3-a]pyrimidin-5-yl)-1,2,3,4-tetrahydro-1,7-naphthyridin-5-yl)-2,2-dimethylbut-3-ynenitrile] |
